Laboratory results taken from patent publication US4442044A, “Process for preparing monoesters and diesters of N-alkyl substituted amino methyl phosphonic acid” (priority 1983, dated 1984).

How the values were obtained:
Format in all cases: in vivo
Panicum Spp = assay: post-emergent herbicidal activity, greenhouse; settings: Table II, 4 WAT
Summary of the method: (§1)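 Seeds or propagules sown in compacted top soil, grown 2–3 weeks in greenhouse, then sprayed with compound solution/suspension containing ~0.4% emulsifier at tabulated rates. Injury scored visually versus untreated controls at ~2 and 4 weeks after treatment, expressed as a herbicidal activity index.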

Quackgrass [1] = assay: post-emergent herbicidal activity, greenhouse; settings: Table I, 4 WAT
Summary of the method: as §1

Cocklebur [2] = assay: post-emergent herbicidal activity, greenhouse; settings: 4 WAT
Summary of the method: as §1

Soybean = assay: post-emergent herbicidal activity, greenhouse; settings: Table II, 4 WAT
Summary of the method: as §1

Crabgrass = assay: post-emergent herbicidal activity, greenhouse; settings: Table II, 4 WAT
Summary of the method: as §1

Yellow Nutsedge [3] = assay: post-emergent herbicidal activity, greenhouse; settings: Table I, 4 WAT
Summary of the method: as §1

Smartweed [4] = assay: post-emergent herbicidal activity, greenhouse; settings: 4 WAT
Summary of the method: as §1

Rice = assay: post-emergent herbicidal activity, greenhouse; settings: Table II, 4 WAT
Summary of the method: as §1

Wild Buckwheat = assay: post-emergent herbicidal activity, greenhouse; settings: Table II, 4 WAT
Summary of the method: as §1

Hemp Sesbania = assay: post-emergent herbicidal activity, greenhouse; settings: Table II, 4 WAT
Summary of the method: as §1

Johnsongrass [5] = assay: post-emergent herbicidal activity, greenhouse; settings: Table I, 4 WAT
Summary of the method: as §1

Morningglory [6] = assay: post-emergent herbicidal activity, greenhouse; settings: 4 WAT
Summary of the method: as §1

Lambsquarters [7] = assay: post-emergent herbicidal activity, greenhouse; settings: 4 WAT
Summary of the method: as §1

Wheat = assay: post-emergent herbicidal activity, greenhouse; settings: Table II, 4 WAT
Summary of the method: as §1

Barnyardgrass [8] = assay: post-emergent herbicidal activity, greenhouse; settings: 4 WAT
Summary of the method: as §1

Sugar Beet = assay: post-emergent herbicidal activity, greenhouse; settings: Table II, 4 WAT
Summary of the method: as §1

Downy Brome [9] = assay: post-emergent herbicidal activity, greenhouse; settings: 4 WAT
Summary of the method: as §1

Sorghum = assay: post-emergent herbicidal activity, greenhouse; settings: Table II, 4 WAT
Summary of the method: as §1

Canada Thistle [10] = assay: post-emergent herbicidal activity, greenhouse; settings: Table I, 4 WAT
Summary of the method: as §1

Velvetleaf [11] = assay: post-emergent herbicidal activity, greenhouse; settings: 4 WAT
Summary of the method: as §1

Quackgrass [12] = assay: pre-emergent herbicidal activity, soil incorporation; settings: Table III, 2 WAT, 11.2 kg/h
Summary of the method: (§2)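 Seeds/propagules placed on compacted top soil, then covered with soil admixed with composition containing known active-ingredient amount (soil incorporation); sub-irrigated on wet sand bench about two weeks under ordinary sunlight and watering. Emerged plants counted per species against untreated control; index from average percent control.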

Cocklebur [13] = assay: as above; settings: Table III, 2 WAT, 11.2 kg/h
Summary of the method: as §2

Yellow Nutsedge [14] = assay: as above; settings: Table III, 2 WAT, 11.2 kg/h
Summary of the method: as §2

Smartweed [15] = assay: as above; settings: Table III, 2 WAT, 11.2 kg/h
Summary of the method: as §2

Johnsongrass [16] = assay: as above; settings: Table III, 2 WAT, 11.2 kg/h
Summary of the method: as §2

Morningglory [17] = assay: as above; settings: Table III, 2 WAT, 11.2 kg/h
Summary of the method: as §2

Lambsquarters [18] = assay: as above; settings: Table III, 2 WAT, 11.2 kg/h
Summary of the method: as §2

Barnyardgrass [19] = assay: as above; settings: Table III, 2 WAT, 11.2 kg/h
Summary of the method: as §2

Downy Brome [20] = assay: as above; settings: Table III, 2 WAT, 11.2 kg/h
Summary of the method: as §2

Canada Thistle [21] = assay: as above; settings: Table III, 2 WAT, 11.2 kg/h
Summary of the method: as §2

Velvetleaf [22] = assay: as above; settings: Table III, 2 WAT, 11.2 kg/h
Summary of the method: as §2

`CCCCCOC(=O)CNCP(=O)(O)OC(C)C#N` (stereo not drawn) [Example 6, glycine, N-[[(1-cyanoethoxy)hydroxy-phosphinyl]methyl]pentyl ester, hemihydrate] was tested, and the “post-emergent herbicidal activity index” value (Panicum Spp; 0.28 kg/h) was 4 (100% control), the “post-emergent herbicidal activity index” value (Panicum Spp; 1.12 kg/h) was 4 (100% control) and the “post-emergent herbicidal activity index” value (Panicum Spp; 5.6 kg/h) was 4 (100% control). The “post-emergent herbicidal activity index” value (Quackgrass [1]; 5.6 kg/h) was 2 (50-74% control), the “post-emergent herbicidal activity index” value (Quackgrass [1]; 11.2 kg/h) was 3 (75-99% control) and the “post-emergent herbicidal activity index” value (Cocklebur [2]; Table I, 5.6 kg/h) was 3 (75-99% control). The “post-emergent herbicidal activity index” value (Cocklebur [2]; Table I, 11.2 kg/h) was 3 (75-99% control), the “post-emergent herbicidal activity index” value (Cocklebur [2]; Table II, 0.28 kg/h) was 2 (50-74% control) and the “post-emergent herbicidal activity index” value (Cocklebur [2]; Table II, 1.12 kg/h) was 2 (50-74% control). The “post-emergent herbicidal activity index” value (Cocklebur [2]; Table II, 5.6 kg/h) was 3 (75-99% control), the “post-emergent herbicidal activity index” value (Soybean; 0.28 kg/h) was 1 (25-49% control) and the “post-emergent herbicidal activity index” value (Soybean; 1.12 kg/h) was 2 (50-74% control). For the same molecule, the “post-emergent herbicidal activity index” value (Soybean; 5.6 kg/h) was 4 (100% control), the “post-emergent herbicidal activity index” value (Crabgrass; 0.28 kg/h) was 3 (75-99% control) and the “post-emergent herbicidal activity index” value (Crabgrass; 1.12 kg/h) was 3 (75-99% control). The “post-emergent herbicidal activity index” value (Crabgrass; 5.6 kg/h) was 4 (100% control), the “post-emergent herbicidal activity index” value (Yellow Nutsedge [3]; 5.6 kg/h) was 2 (50-74% control) and the “post-emergent herbicidal activity index” value (Yellow Nutsedge [3]; 11.2 kg/h) was 4 (100% control). For the same molecule, the “post-emergent herbicidal activity index” value (Smartweed [4]; Table I, 5.6 kg/h) was 4 (100% control), the “post-emergent herbicidal activity index” value (Smartweed [4]; Table I, 11.2 kg/h) was 4 (100% control) and the “post-emergent herbicidal activity index” value (Smartweed [4]; Table II, 0.28 kg/h) was 1 (25-49% control). The “post-emergent herbicidal activity index” value (Smartweed [4]; Table II, 1.12 kg/h) was 3 (75-99% control), the “post-emergent herbicidal activity index” value (Smartweed [4]; Table II, 5.6 kg/h) was 3 (75-99% control) and the “post-emergent herbicidal activity index” value (Rice; 0.28 kg/h) was 1 (25-49% control). For the same molecule, the “post-emergent herbicidal activity index” value (Rice; 1.12 kg/h) was 2 (50-74% control), the “post-emergent herbicidal activity index” value (Rice; 5.6 kg/h) was 4 (100% control) and the “post-emergent herbicidal activity index” value (Wild Buckwheat; 0.28 kg/h) was 2 (50-74% control). For the same molecule, the “post-emergent herbicidal activity index” value (Wild Buckwheat; 1.12 kg/h) was 2 (50-74% control), the “post-emergent herbicidal activity index” value (Wild Buckwheat; 5.6 kg/h) was 4 (100% control) and the “post-emergent herbicidal activity index” value (Hemp Sesbania; 0.28 kg/h) was 1 (25-49% control). The “post-emergent herbicidal activity index” value (Hemp Sesbania; 1.12 kg/h) was 2 (50-74% control), the “post-emergent herbicidal activity index” value (Hemp Sesbania; 5.6 kg/h) was 4 (100% control) and the “post-emergent herbicidal activity index” value (Johnsongrass [5]; 5.6 kg/h) was 1 (25-49% control). The “post-emergent herbicidal activity index” value (Johnsongrass [5]; 11.2 kg/h) was 2 (50-74% control), the “post-emergent herbicidal activity index” value (Morningglory [6]; Table I, 5.6 kg/h) was 3 (75-99% control) and the “post-emergent herbicidal activity index” value (Morningglory [6]; Table I, 11.2 kg/h) was 2 (50-74% control). For the same molecule, the “post-emergent herbicidal activity index” value (Morningglory [6]; Table II, 0.28 kg/h) was 2 (50-74% control), the “post-emergent herbicidal activity index” value (Morningglory [6]; Table II, 1.12 kg/h) was 2 (50-74% control) and the “post-emergent herbicidal activity index” value (Morningglory [6]; Table II, 5.6 kg/h) was 3 (75-99% control). For the same molecule, the “post-emergent herbicidal activity index” value (Lambsquarters [7]; Table I, 5.6 kg/h) was 2 (50-74% control), the “post-emergent herbicidal activity index” value (Lambsquarters [7]; Table I, 11.2 kg/h) was 4 (100% control) and the “post-emergent herbicidal activity index” value (Lambsquarters [7]; Table II, 0.28 kg/h) was 1 (25-49% control). For the same molecule, the “post-emergent herbicidal activity index” value (Lambsquarters [7]; Table II, 1.12 kg/h) was 3 (75-99% control), the “post-emergent herbicidal activity index” value (Lambsquarters [7]; Table II, 5.6 kg/h) was 4 (100% control) and the “post-emergent herbicidal activity index” value (Wheat; 0.28 kg/h) was 2 (50-74% control). For the same molecule, the “post-emergent herbicidal activity index” value (Wheat; 1.12 kg/h) was 2 (50-74% control), the “post-emergent herbicidal activity index” value (Wheat; 5.6 kg/h) was 4 (100% control) and the “post-emergent herbicidal activity index” value (Barnyardgrass [8]; Table I, 5.6 kg/h) was 3 (75-99% control). For the same molecule, the “post-emergent herbicidal activity index” value (Barnyardgrass [8]; Table I, 11.2 kg/h) was 3 (75-99% control), the “post-emergent herbicidal activity index” value (Barnyardgrass [8]; Table II, 0.28 kg/h) was 2 (50-74% control) and the “post-emergent herbicidal activity index” value (Barnyardgrass [8]; Table II, 1.12 kg/h) was 3 (75-99% control). For the same molecule, the “post-emergent herbicidal activity index” value (Barnyardgrass [8]; Table II, 5.6 kg/h) was 3 (75-99% control), the “post-emergent herbicidal activity index” value (Sugar Beet; 0.28 kg/h) was 2 (50-74% control) and the “post-emergent herbicidal activity index” value (Sugar Beet; 1.12 kg/h) was 4 (100% control). The “post-emergent herbicidal activity index” value (Sugar Beet; 5.6 kg/h) was 4 (100% control), the “post-emergent herbicidal activity index” value (Downy Brome [9]; Table I, 5.6 kg/h) was 1 (25-49% control) and the “post-emergent herbicidal activity index” value (Downy Brome [9]; Table I, 11.2 kg/h) was 3 (75-99% control). The “post-emergent herbicidal activity index” value (Downy Brome [9]; Table II, 0.28 kg/h) was 3 (75-99% control), the “post-emergent herbicidal activity index” value (Downy Brome [9]; Table II, 1.12 kg/h) was 3 (75-99% control) and the “post-emergent herbicidal activity index” value (Downy Brome [9]; Table II, 5.6 kg/h) was 4 (100% control). The “post-emergent herbicidal activity index” value (Sorghum; 0.28 kg/h) was 1 (25-49% control), the “post-emergent herbicidal activity index” value (Sorghum; 1.12 kg/h) was 3 (75-99% control) and the “post-emergent herbicidal activity index” value (Sorghum; 5.6 kg/h) was 4 (100% control). For the same molecule, the “post-emergent herbicidal activity index” value (Canada Thistle [10]; 5.6 kg/h) was 4 (100% control), the “post-emergent herbicidal activity index” value (Canada Thistle [10]; 11.2 kg/h) was 4 (100% control) and the “post-emergent herbicidal activity index” value (Velvetleaf [11]; Table I, 5.6 kg/h) was 3 (75-99% control). For the same molecule, the “post-emergent herbicidal activity index” value (Velvetleaf [11]; Table I, 11.2 kg/h) was 3 (75-99% control), the “post-emergent herbicidal activity index” value (Velvetleaf [11]; Table II, 0.28 kg/h) was 1 (25-49% control) and the “post-emergent herbicidal activity index” value (Velvetleaf [11]; Table II, 1.12 kg/h) was 2 (50-74% control). For the same molecule, the “post-emergent herbicidal activity index” value (Velvetleaf [11]; Table II, 5.6 kg/h) was 3 (75-99% control), the “pre-emergent herbicidal activity index” value (Quackgrass [12]) was 0 (1-24% control) and the “pre-emergent herbicidal activity index” value (Cocklebur [13]) was 0 (1-24% control). For the same molecule, the “pre-emergent herbicidal activity index” value (Yellow Nutsedge [14]) was 0 (1-24% control), the “pre-emergent herbicidal activity index” value (Smartweed [15]) was 0 (1-24% control) and the “pre-emergent herbicidal activity index” value (Johnsongrass [16]) was 0 (1-24% control). For the same molecule, the “pre-emergent herbicidal activity index” value (Morningglory [17]) was 0 (1-24% control), the “pre-emergent herbicidal activity index” value (Lambsquarters [18]) was 0 (1-24% control) and the “pre-emergent herbicidal activity index” value (Barnyardgrass [19]) was 0 (1-24% control). The “pre-emergent herbicidal activity index” value (Downy Brome [20]) was 0 (1-24% control), the “pre-emergent herbicidal activity index” value (Canada Thistle [21]) was 0 (1-24% control) and the “pre-emergent herbicidal activity index” value (Velvetleaf [22]) was 0 (1-24% control).
